Columns and labels:
[1] = Serious adverse reactions, Phase 2 Acebilustat safety population; format: in vivo, human; settings: Phase 2, N = 217
From the text: SARs reported in the completed Phase 2 studies and suspected to be potentially related to drug treatment are tabulated below.

[2] = tested on: sputum white blood cells and neutrophils; assay: Sputum cell counts in CF patients; format: in vivo, human
[3] = Most common treatment emergent adverse events, safety population
[4] = Clinical safety and tolerability
neutrophil swarming = assay: Neutrophil swarming in vitro in response to CF sputum factors; format: cell-based; settings: 48 ng/mL; factors present in human CF sputum

For `O=C(O)c1ccc(CN2C[C@@H]3C[C@H]2CN3Cc2ccc(Oc3ccc(-c4ncco4)cc3)cc2)cc1` [Acebilustat, 4-{[(1S,4S)-5-({4-[4-oxazol-2-yl-phenoxy]phenyl}methyl)-2,5-diazabicyclo[2.2.1]heptan-2-yl]methyl}benzoic acid], the “SAR Distal intestinal obstruction syndrome, # of Subjects” value [1] was 1, the “SAR Distal intestinal obstruction syndrome, Frequency” value [1] was 0.5% and the “SAR Distal intestinal obstruction syndrome, Intensity Mild” value [1] was 0. For the same compound, the “SAR Distal intestinal obstruction syndrome, Intensity Moderate” value [1] was 0, the “SAR Distal intestinal obstruction syndrome, Intensity Severe” value [1] was 1 and the “SAR Drug Induced Liver Injury, # of Subjects” value [1] was 1. The “SAR Drug Induced Liver Injury, Frequency” value [1] was 0.5%, the “SAR Drug Induced Liver Injury, Intensity Mild” value [1] was 0 and the “SAR Drug Induced Liver Injury, Intensity Moderate” value [1] was 0. For the same compound, the “SAR Drug Induced Liver Injury, Intensity Severe” value [1] was 1, the “SAR Gastrointestinal disorders, # of Subjects” value [1] was 1 and the “SAR Gastrointestinal disorders, Frequency” value [1] was 0.5%. For the same compound, the “SAR Gastrointestinal disorders, Intensity Mild” value [1] was 0, the “SAR Gastrointestinal disorders, Intensity Moderate” value [1] was 0 and the “SAR Gastrointestinal disorders, Intensity Severe” value [1] was 1. For the same compound, the “SAR Hepatobiliary Disorders, # of Subjects” value [1] was 1, the “SAR Hepatobiliary Disorders, Frequency” value [1] was 0.5% and the “SAR Hepatobiliary Disorders, Intensity Mild” value [1] was 0. The “SAR Hepatobiliary Disorders, Intensity Moderate” value [1] was 0, the “SAR Hepatobiliary Disorders, Intensity Severe” value [1] was 1 and the “SAR Infections and infestations, # of Subjects” value [1] was 1. For the same compound, the “SAR Infections and infestations, Frequency” value [1] was 0.5%, the “SAR Infections and infestations, Intensity Mild” value [1] was 0 and the “SAR Infections and infestations, Intensity Moderate” value [1] was 0. The “SAR Infections and infestations, Intensity Severe” value [1] was 1, the “SAR Infective pulmonary exacerbation of cystic fibrosis, # of Subjects” value [1] was 1 and the “SAR Infective pulmonary exacerbation of cystic fibrosis, Frequency” value [1] was 0.5%. The “SAR Infective pulmonary exacerbation of cystic fibrosis, Intensity Mild” value [1] was 0, the “SAR Infective pulmonary exacerbation of cystic fibrosis, Intensity Moderate” value [1] was 0 and the “SAR Infective pulmonary exacerbation of cystic fibrosis, Intensity Severe” value [1] was 1. The sputum neutrophils decrease ([2]; 100 mg group) was 65%, the “sputum white blood cells decrease from Baseline” value ([2]; 100 mg group) was 60% and the sputum neutrophils decrease ([2]; all treated (50 to 100 mg)) was 34%. The “sputum white blood cells decrease from Baseline” value ([2]; all treated subjects (50 or 100 mg)) was 31%, the “Abdominal pain TEAE, %” value ([3]; 50 mg (N = 67)) was “(4.5%)” and the “Abdominal pain upper TEAE, %” value ([3]; 50 mg (N = 67)) was “(10.4%)”. The “Arthralgia TEAE, %” value ([3]; 50 mg (N = 67)) was “(4.5%)”, the “Back pain TEAE, %” value ([3]; 50 mg (N = 67)) was “(6.0%)” and the “Chest discomfort TEAE, %” value ([3]; 50 mg (N = 67)) was “(4.5%)”. The “Constipation TEAE, %” value ([3]; 50 mg (N = 67)) was “(6.0%)”, the “Cough TEAE, %” value ([3]; 50 mg (N = 67)) was “(40.3%)” and the “Diarrhoea TEAE, %” value ([3]; 50 mg (N = 67)) was “(13.4%)”. The “Distal intestinal obstruction syndrome TEAE, %” value ([3]; 50 mg (N = 67)) was “(6.0%)”, the “Dyspnoea TEAE, %” value ([3]; 50 mg (N = 67)) was “(9.0%)” and the “Epistaxis TEAE, %” value ([3]; 50 mg (N = 67)) was “(6.0%)”. For the same compound, the “Fatigue TEAE, %” value ([3]; 50 mg (N = 67)) was “(13.4%)”, the “Forced expiratory volume decreased TEAE, %” value ([3]; 50 mg (N = 67)) was “(6.0%)” and the “Gastroenteritis TEAE, %” value ([3]; 50 mg (N = 67)) was “(1.5%)”. For the same compound, the “Gastrointestinal disorders TEAE, %” value ([3]; 50 mg (N = 67)) was “(40.3%)”, the “General disorders and administration site conditions TEAE, %” value ([3]; 50 mg (N = 67)) was “(35.8%)” and the “Haemoptysis TEAE, %” value ([3]; 50 mg (N = 67)) was “(25.4%)”. For the same compound, the “Headache TEAE, %” value ([3]; 50 mg (N = 67)) was “(23.9%)”, the “Infections and infestations TEAE, %” value ([3]; 50 mg (N = 67)) was “(88.1%)” and the “Influenza TEAE, %” value ([3]; 50 mg (N = 67)) was “(4.5%)”. For the same compound, the “Investigations TEAE, %” value ([3]; 50 mg (N = 67)) was “(29.9%)”, the “Musculoskeletal and connective tissue disorders TEAE, %” value ([3]; 50 mg (N = 67)) was “(19.4%)” and the “Nasopharyngitis TEAE, %” value ([3]; 50 mg (N = 67)) was “(16.4%)”. The “Nausea TEAE, %” value ([3]; 50 mg (N = 67)) was “(7.5%)”, the “Nervous system disorders TEAE, %” value ([3]; 50 mg (N = 67)) was “(32.8%)” and the “No. of subjects with at least one TEAE, %” value ([3]; 50 mg (N = 67)) was “(100.0%)”. For the same compound, the “Oropharyngeal pain TEAE, %” value ([3]; 50 mg (N = 67)) was “(10.4%)”, the “Paranasal sinus hypersecretion TEAE, %” value ([3]; 50 mg (N = 67)) was “(7.5%)” and the “Pyrexia TEAE, %” value ([3]; 50 mg (N = 67)) was “(9.0%)”. For the same compound, the “Rales TEAE, %” value ([3]; 50 mg (N = 67)) was “(1.5%)”, the “Rash TEAE, %” value ([3]; 50 mg (N = 67)) was “(4.5%)” and the “Respiratory, thoracic and mediastinal disorders TEAE, %” value ([3]; 50 mg (N = 67)) was “(70.1%)”. The “Rhinitis TEAE, %” value ([3]; 50 mg (N = 67)) was “(6.0%)”, the “Rhinorrhoea TEAE, %” value ([3]; 50 mg (N = 67)) was “(9.0%)” and the “Sinusitis TEAE, %” value ([3]; 50 mg (N = 67)) was “(4.5%)”. The “Skin and subcutaneous tissue disorders TEAE, %” value ([3]; 50 mg (N = 67)) was “(11.9%)”, the “Sputum abnormal TEAE, %” value ([3]; 50 mg (N = 67)) was “(6.0%)” and the “Sputum increased TEAE, %” value ([3]; 50 mg (N = 67)) was “(19.4%)”. For the same compound, the “Abdominal pain TEAE, %” value ([3]; 100 mg (N = 66)) was “(6.1%)”, the “Abdominal pain upper TEAE, %” value ([3]; 100 mg (N = 66)) was “(4.5%)” and the “Alanine aminotransferase increased TEAE, %” value ([3]; 100 mg (N = 66)) was “(6.1%)”. For the same compound, the “Arthralgia TEAE, %” value ([3]; 100 mg (N = 66)) was “(7.6%)”, the “Back pain TEAE, %” value ([3]; 100 mg (N = 66)) was “(1.5%)” and the “Chest discomfort TEAE, %” value ([3]; 100 mg (N = 66)) was “(12.1%)”. The “Constipation TEAE, %” value ([3]; 100 mg (N = 66)) was “(1.5%)”, the “Cough TEAE, %” value ([3]; 100 mg (N = 66)) was “(43.9%)” and the “Diarrhoea TEAE, %” value ([3]; 100 mg (N = 66)) was “(7.6%)”. The “Distal intestinal obstruction syndrome TEAE, %” value ([3]; 100 mg (N = 66)) was “(3.0%)”, the “Dyspnoea TEAE, %” value ([3]; 100 mg (N = 66)) was “(7.6%)” and the “Epistaxis TEAE, %” value ([3]; 100 mg (N = 66)) was “(4.5%)”. For the same compound, the “Fatigue TEAE, %” value ([3]; 100 mg (N = 66)) was “(13.6%)”, the “Forced expiratory volume decreased TEAE, %” value ([3]; 100 mg (N = 66)) was “(7.6%)” and the “Gastroenteritis TEAE, %” value ([3]; 100 mg (N = 66)) was “(6.1%)”. The “Gastrointestinal disorders TEAE, %” value ([3]; 100 mg (N = 66)) was “(30.3%)”, the “General disorders and administration site conditions TEAE, %” value ([3]; 100 mg (N = 66)) was “(36.4%)” and the “Haemoptysis TEAE, %” value ([3]; 100 mg (N = 66)) was “(18.2%)”. The “Headache TEAE, %” value ([3]; 100 mg (N = 66)) was “(13.6%)”, the “Infections and infestations TEAE, %” value ([3]; 100 mg (N = 66)) was “(90.9%)” and the “Influenza TEAE, %” value ([3]; 100 mg (N = 66)) was “(7.6%)”. The “Investigations TEAE, %” value ([3]; 100 mg (N = 66)) was “(34.8%)”, the “Musculoskeletal and connective tissue disorders TEAE, %” value ([3]; 100 mg (N = 66)) was “(16.7%)” and the “Nasopharyngitis TEAE, %” value ([3]; 100 mg (N = 66)) was “(21.2%)”. The “Nausea TEAE, %” value ([3]; 100 mg (N = 66)) was “(12.1%)”, the “Nervous system disorders TEAE, %” value ([3]; 100 mg (N = 66)) was “(22.7%)” and the “No. of subjects with at least one TEAE, %” value ([3]; 100 mg (N = 66)) was “(100.0%)”. The “Oropharyngeal pain TEAE, %” value ([3]; 100 mg (N = 66)) was “(13.6%)”, the “Pyrexia TEAE, %” value ([3]; 100 mg (N = 66)) was “(12.1%)” and the “Rales TEAE, %” value ([3]; 100 mg (N = 66)) was “(6.1%)”. The “Rash TEAE, %” value ([3]; 100 mg (N = 66)) was “(9.1%)”, the “Respiratory, thoracic and mediastinal disorders TEAE, %” value ([3]; 100 mg (N = 66)) was “(75.8%)” and the “Rhinitis TEAE, %” value ([3]; 100 mg (N = 66)) was “(4.5%)”. For the same compound, the “Rhinorrhoea TEAE, %” value ([3]; 100 mg (N = 66)) was “(7.6%)”, the “Sinusitis TEAE, %” value ([3]; 100 mg (N = 66)) was “(10.6%)” and the “Skin and subcutaneous tissue disorders TEAE, %” value ([3]; 100 mg (N = 66)) was “(24.2%)”. For the same compound, the “Sputum increased TEAE, %” value ([3]; 100 mg (N = 66)) was “(10.6%)”, the tolerability ([4]; CF patients, 50 mg and 100 mg per day for 48 weeks) was “generally well tolerated” and the “serious adverse reactions (SARs)” value ([4]; Phase 1 studies, healthy volunteers or subjects with CF) was “No SARs were reported”. The safety and tolerability ([4]; across six clinical studies, 5 to 200 mg) was “generally safe and well tolerated”, the “circulating neutrophil counts or sputum microbiology” value ([4]; clinical studies) was “did not alter” and the “headache considered to be related to Acebilustat” value ([4]; clinical studies) was 8%. The tolerability ([4]; healthy volunteers, once-daily oral up to 200 mg/day for 14 days) was “well tolerated” and the “reduction of neutrophil swarming” value (neutrophil swarming) was 80%.
